Reference: US20060035862A1, “Tolerance of 4-(4-(2-pyrrolycarbonyl)-1-piperazinyl)-3-trifluoromethyl-benzoylguanidine in intravenous administration” (Boehringer Ingelheim Pharma KG, priority 2001, published 2006)
Counter-ions that a name gives are not always drawn.

Assays:
[1] = local tolerance trial on rats (30 minutes' infusion into the caudal vein); assay type: in vivo
[2] = local tolerance study on rabbits (bolus and 8 minutes infusion); assay type: in vivo
[3] = stability of the active substance (hydrolysis); assay type: physicochemical; conditions: only anhydrous formulations are stable
From the text: Therefore, lyophilisates have been developed, which have to be reconstituted before use.

citrated human blood = assay: in vitro haemolysis test (solution mixed 1:1 with citrated human blood, 37° C.); assay type: cell-based
From the text: In the following description the term “active substance”, on its own or in combination, always denotes 4-(4-(2-pyrrolylcarbonyl)-1-piperazinyl)-3-trifluoromethyl-benzoylguanidine hydrochloride, unless otherwise stated. Both a monohydrate and a hemihydrate of 4-(4-(2-pyrrolylcarbonyl)-1-piperazinyl)-3-trifluoromethyl-benzoylguanidine hydrochloride may be obtained. For all the experiments the hemihydrate was used. The quantitative data used hereinafter always relate to the free base; i.e. the quantities specified correspond to the theoretical amount of free base, whereas in reality a correspondingly larger amount of hemihydrate was added. In each case glucose was used to render the solution isotonic. The isotonic nature of the solutions was checked in each case by lowering the freezing point. In in-vitro haemolysis tests in each case the solution to be tested was mixed with citrated human blood in the ratio 1:1 and kept at 37° C. during the incubation period. […]

[4] = local tolerance in dogs (bolus and infusion); assay type: in vivo
Description: In the second step the appropriate ratio of HPβCD to active substance was determined from the local tolerance in dogs.

[5] = local tolerance after intravenous administration; assay type: in vivo
Description: When they are administered parenterally some local intolerances occasionally arise.

Structure (SMILES): N=C(N)NC(=O)c1ccc(N2CCN(C(=O)c3ccc[nH]3)CC2)c(C(F)(F)F)c1 [active substance, 4-(4-(2-pyrrolylcarbonyl)-1-piperazinyl)-3-trifluoromethyl-benzoylguanidine hydrochloride]
- local tolerance ([1]; 0.75 mg/ml, no tolerance measures, 30 minutes' infusion into the caudal vein): poorly tolerated
- local tolerance ([1]; 1.5 mg/ml with 100 mg/ml Poloxamer 188, 30 minutes infusion into the caudal vein, compared with 1.5 mg/ml without excipient): better tolerated
- local tolerance ([2]; 1% active substance solutions containing 10% HPβCD): locally well-tolerated
- local tolerance ([2]; 1% active substance solutions with phospholipid and sodium cholate (mixed micelles)): locally well-tolerated
- stability [3]: prone to hydrolysis
- degree of haemolysis (citrated human blood; 10 mg/ml active substance, 100 mg/ml PVP 17 PF, aqueous isotonic solution, incubation 45 minutes): 17%
- haemolysis observed (citrated human blood; 1% aqueous isotonic active substance solution containing 10% HPβCD, incubation 45 minutes): no haemolysis
- degree of haemolysis (%) (citrated human blood; active substance 0.5 mg/ml, aqueous isotonic solution, no tolerance measures, incubation two hours): 0%
- degree of haemolysis (%) (citrated human blood; active substance 1.0 mg/ml, aqueous isotonic solution, no tolerance measures, incubation two hours): 1%
- degree of haemolysis (%) (citrated human blood; active substance 1.5 mg/ml, aqueous isotonic solution, no tolerance measures, incubation two hours): 4%
- degree of haemolysis (%) (citrated human blood; active substance 1.5 mg/ml, no tolerance measures, incubation 45 minutes): 0%
- degree of haemolysis (%) (citrated human blood; active substance 10 mg/ml, HPβCD 0 mg/ml, incubation 45 minutes): 100%
- degree of haemolysis (%) (citrated human blood; active substance 10 mg/ml, HPβCD 100 mg/ml, incubation 45 minutes): 0%
- degree of haemolysis (%) (citrated human blood; active substance 10 mg/ml, Poloxamer 188 0 mg/ml, incubation 45 minutes): 99%
- degree of haemolysis (%) (citrated human blood; active substance 10 mg/ml, Poloxamer 188 100 mg/ml, incubation 45 minutes): 4%
- degree of haemolysis (%) (citrated human blood; active substance 10 mg/ml, Poloxamer 188 200 mg/ml, incubation 45 minutes): 0%
- degree of haemolysis (%) (citrated human blood; active substance 10.0 mg/ml, no tolerance measures, incubation 45 minutes): 100%
- degree of haemolysis (%) (citrated human blood; active substance 10 mg/ml, phospholipid 60 mg/ml, sodium glycocholate 32 mg/ml): 2%
- degree of haemolysis (%) (citrated human blood; active substance 10 mg/ml, phospholipid 60 mg/ml, sodium glycocholate 36 mg/ml): 7%
- degree of haemolysis (%) (citrated human blood; active substance 10 mg/ml, phospholipid 75 mg/ml, sodium cholate 50 mg/ml, incubation 45 minutes): 7%
- degree of haemolysis (%) (citrated human blood; active substance 10 mg/ml, phospholipid 150 mg/ml, sodium cholate 100 mg/ml, incubation 45 minutes): 0%
- haemolytic activity (citrated human blood; ratio of HPβCD to active substance 6.67:1, active substance concentration 9 mg/ml): not haemolytic
- local tolerance ([4]; weight ratio HPβCD to active substance 10:1, bolus, active substance concentration 10 mg/ml): suitable
- local tolerance ([4]; weight ratio HPβCD to active substance 10:1, infusion, active substance concentration between 1.5 mg/ml and 3 mg/ml): suitable
- local tolerance [5]: locally poorly tolerated
